Assay results reported in patent US20240343733A1, “COMPOUNDS FOR TARGETING DEGRADATION OF IRAK4 PROTEINS” (BIOGEN MA INC., priority 2021, published 2024).

Target: T1, IRAK4 (Homo sapiens, UniProt Q9NWZ3)
T1 construct: 293Tcells expressing HiBiT-tagged IRAK4 were then added into 384-well plates
T1 sequence (Q9NWZ3 1-460): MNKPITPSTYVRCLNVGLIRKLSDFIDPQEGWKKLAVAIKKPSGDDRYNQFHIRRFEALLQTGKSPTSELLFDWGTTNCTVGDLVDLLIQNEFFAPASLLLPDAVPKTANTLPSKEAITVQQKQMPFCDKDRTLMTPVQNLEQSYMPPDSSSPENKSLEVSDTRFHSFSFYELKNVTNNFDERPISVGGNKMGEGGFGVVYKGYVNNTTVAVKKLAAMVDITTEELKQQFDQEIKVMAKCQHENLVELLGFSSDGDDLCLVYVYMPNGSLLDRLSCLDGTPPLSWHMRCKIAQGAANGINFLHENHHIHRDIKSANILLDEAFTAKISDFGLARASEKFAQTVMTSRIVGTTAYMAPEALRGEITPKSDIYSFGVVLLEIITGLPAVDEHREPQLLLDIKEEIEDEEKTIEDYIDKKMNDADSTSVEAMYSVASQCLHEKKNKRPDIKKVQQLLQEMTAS
Assay: IRAK4 Degradation Assay, HiBiT Method
Type: cell-based
Details: 293T cells expressing HiBiT-tagged IRAK4, 6 hours
Method in brief: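 293T cells with HiBiT knocked in at the C-terminus of endogenous IRAK4, 10,000 per well, treated 6 h at 37 °C with an 11-point half-log series ([…]), in duplicate. Remaining IRAK4 read by Nano-Glo HiBiT lytic luminescence against DMSO-only and media-only controls.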

| DC50 [nM] | Compound |
| --- | --- |
| 10 to 100 | CC(C)Oc1cc2nn(C3CCN(C(=O)CC4(O)CCN(c5ccc(NC6CCC(=O)NC6=O)cc5)CC4)CC3)cc2cc1C(=O)Nc1cccc(C(F)(F)F)n1 (stereo not shown) [Example 58, 2-[1-[2-[1-[4-[(2,6-dioxo-3-piperidyl)amino]phenyl]-4-hydroxy-4-piperidyl]acetyl]-4-piperidyl]-6-isopropoxy-N-[6-(trifluoromethyl)-2-pyridyl]indazole-5-carboxamide] |
| 10 to 100 | CC(C)Oc1cc2nc(C3CCN(C(=O)CC4(O)CCN(c5cc(F)c(NC6CCC(=O)NC6=O)cc5F)CC4)CC3)cn2cc1C(=O)Nc1cccc(C(F)(F)F)n1 (stereo not shown) [Example 74, 2-[1-[2-[1-[4-[(2,6-dioxo-3-piperidyl)amino]-2,5-difluoro-phenyl]-4-hydroxy-4-piperidyl]acetyl]-4-piperidyl]-7-isopropoxy-N-[6-(trifluoromethyl)-2-pyridyl]imidazo[1,2-a]pyridine-6-carboxamide] |
| 10 to 100 | CC(C)Oc1cc2nn([C@H]3CC[C@H](CN4CCCC(c5ccc(OC6CCC(=O)NC6=O)cc5)C4)CC3)cc2cc1C(=O)Nc1cccn(C2CC2)c1=O (stereo partly shown) [Example 118, N-(1-cyclopropyl-2-oxo-1,2-dihydropyridin-3-yl)-2-((1r,4r)-4-((3-(4-((2,6-dioxopiperidin-3-yl)oxy)phenyl)piperidin-1-yl)methyl)cyclohexyl)-6-isopropoxy-2H-indazole-5-carboxamide] |
| < 10 | CC(C)Oc1cc2nn([C@H]3CC[C@H](CN4CCC(c5cc6c(cc5F)c(N5CCC(=O)NC5=O)nn6C)CC4)CC3)cc2cc1C(=O)Nc1cccn([C@H]2C[C@H]2F)c1=O [Example 130, 2-((1r,4S)-4-((4-(3-(2,4-dioxotetrahydropyrimidin-1(2H)-yl)-5-fluoro-1-methyl-1H-indazol-6-yl)piperidin-1-yl)methyl)cyclohexyl)-N-(1-((1S,2R)-2-fluorocyclopropyl)-2-oxo-1,2-dihydropyridin-3-yl)-6-isopropoxy-2H-indazole-5-carboxamide] |
| 10 to 100 | CC(C)Oc1cc2nc([C@H]3CC[C@H](CN4CCC(c5ccc(NC6CCC(=O)NC6=O)cc5)CC4)CC3)cn2cc1C(=O)Nc1cccc(C(F)(F)F)n1 (stereo partly shown) [Example 2, 2-[4-[[4-[4-[(2,6-dioxo-3-piperidyl)amino]phenyl]-1-piperidyl]methyl]cyclohexyl]-7-isopropoxy-N-[6-(trifluoromethyl)-2-pyridyl]imidazo[1,2-a]pyridine-6-carboxamide] |
| 10 to 100 | CC(C)Oc1cc2nc([C@H]3CC[C@](F)(CN4CCC(c5ccc6c(c5)n(C)c(=O)n6C5CCC(=O)NC5=O)CC4)CC3)cn2cc1C(=O)Nc1cccn([C@H]2C[C@H]2F)c1=O (stereo partly shown) [Example 194] |
| < 10 | CC(C)Oc1nc2nc([C@H]3CC[C@H](CN4CCC(c5ccc6c(c5)n(C)c(=O)n6C5CCC(=O)NC5=O)CC4)CC3)cn2cc1C(=O)Nc1cccn([C@H]2C[C@H]2F)c1=O (stereo partly shown) [Example 192] |
| 10 to 100 | CC(C)Oc1cc2nc([C@H]3CC[C@H](CN(C)C4CCN(c5ccc(NC6CCC(=O)NC6=O)cc5)CC4)CC3)cn2cc1C(=O)Nc1cccc(C(F)F)n1 (stereo partly shown) [Example 20, N-[6-(difluoromethyl)-2-pyridyl]-2-[4-[[[1-[4-[(2,6-dioxo-3-piperidyl)amino]phenyl]-4-piperidyl]-methyl-amino]methyl]cyclohexyl]-7-isopropoxy-imidazo[1,2-a]pyridine-6-carboxamide] |
| < 10 | CC(C)Oc1cc2nc(C3CCN(C(=O)CC4CCN(c5cnc(C6CCC(=O)NC6=O)cn5)CC4)CC3)cn2cc1C(=O)Nc1cccn([C@H]2C[C@H]2F)c1=O (stereo partly shown) [Example 189] |
| 500 to 1000 | CC(C)Oc1cc2nn(C3CCN(C(=O)CN4CCC(c5ccc(NC6CCC(=O)NC6=O)cc5F)CC4)CC3)cc2cc1C(=O)Nc1cccc(C(F)F)n1 (stereo not shown) [Example 64, N-(6-(difluoromethyl)pyridin-2-yl)-2-(1-(2-(4-(4-((2,6-dioxopiperidin-3-yl)amino)-2-fluorophenyl)piperidin-1-yl)acetyl)piperidin-4-yl)-6-isopropoxy-2H-indazole-5-carboxamide] |
